Source: ChEMBL document CHEMBL1147946, “3-{2-[Bis-(4-fluorophenyl)methoxy]ethyl}-6-substituted-3,6-diazabicyclo[3.1.1]heptanes as novel potent dopamine uptake inhibitors” (Bioorg Med Chem, 2007)

Target: Sodium-dependent dopamine transporter (Rattus norvegicus, UniProt P23977)
Assay: Inhibition of [3H]dopamine uptake at DAT in Sprague-Dawley rat striatum synaptosome
Type: tissue-based

Chain of Sodium-dependent dopamine transporter (P23977 whole entry): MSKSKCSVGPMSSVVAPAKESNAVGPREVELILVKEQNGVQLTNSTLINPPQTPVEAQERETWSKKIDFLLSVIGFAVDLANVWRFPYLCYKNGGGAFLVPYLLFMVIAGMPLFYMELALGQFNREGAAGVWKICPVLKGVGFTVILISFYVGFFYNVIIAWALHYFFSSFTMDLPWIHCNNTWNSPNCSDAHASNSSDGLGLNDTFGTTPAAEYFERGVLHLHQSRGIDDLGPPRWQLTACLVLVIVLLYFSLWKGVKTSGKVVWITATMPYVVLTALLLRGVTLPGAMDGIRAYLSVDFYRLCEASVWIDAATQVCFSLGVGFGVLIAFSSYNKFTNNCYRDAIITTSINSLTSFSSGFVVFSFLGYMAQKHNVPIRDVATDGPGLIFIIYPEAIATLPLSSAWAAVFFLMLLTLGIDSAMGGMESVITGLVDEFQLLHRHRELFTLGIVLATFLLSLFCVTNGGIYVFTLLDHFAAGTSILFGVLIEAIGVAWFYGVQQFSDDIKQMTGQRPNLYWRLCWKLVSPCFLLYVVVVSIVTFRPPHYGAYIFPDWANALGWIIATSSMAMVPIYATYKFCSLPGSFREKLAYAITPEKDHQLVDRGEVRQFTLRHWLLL

SMILES | Ki
Fc1ccc(C(OCCN2CC3CC(C2)N3Cc2cc3ccccc3s2)c2ccc(F)cc2)cc1 | 35 nM
Cc1ccccc1/C=C/CN1C2CC1CN(CCOC(c1ccc(F)cc1)c1ccc(F)cc1)C2 | 6.25 nM
Fc1ccc(C(OCCN2CC3CC(C2)N3Cc2cc3ccccc3[nH]2)c2ccc(F)cc2)cc1 | 5.5 nM
Fc1ccc(C(OCCN2CC3CC(C2)N3CC2=Cc3ccccc3C2)c2ccc(F)cc2)cc1 | 6.5 nM
Fc1ccc(C(OCCN2CC3CC(C2)N3C/C=C/c2cccs2)c2ccc(F)cc2)cc1 | 12.6 nM
Fc1ccc(C(OCCN2CC3CC(C2)N3C/C=C/c2ccco2)c2ccc(F)cc2)cc1 | 8.8 nM
Fc1ccc(C(OCCN2CC3CC(C2)N3Cc2cc3ccccc3o2)c2ccc(F)cc2)cc1 | 37.5 nM
Fc1ccc(C(OCCN2CC3CC(C2)N3C/C=C/c2ccccc2)c2ccc(F)cc2)cc1 | 9.1 nM
Fc1ccc(C(OCCN2CC3CC(C2)N3C/C=C/c2ccc3ccccc3c2)c2ccc(F)cc2)cc1 | 45.6 nM
